The results in this text go back to patent US20250171438A1 (Agios Pharmaceuticals, Inc., priority 2022, published 2025).

SMILES strings stand for the structures.

The test addresses T1, human PAH with the R408W mutation (Homo sapiens, UniProt P00439, R408W).
T1 construct: expressed in transfected cells
T1 sequence (P00439 1-452 R408W): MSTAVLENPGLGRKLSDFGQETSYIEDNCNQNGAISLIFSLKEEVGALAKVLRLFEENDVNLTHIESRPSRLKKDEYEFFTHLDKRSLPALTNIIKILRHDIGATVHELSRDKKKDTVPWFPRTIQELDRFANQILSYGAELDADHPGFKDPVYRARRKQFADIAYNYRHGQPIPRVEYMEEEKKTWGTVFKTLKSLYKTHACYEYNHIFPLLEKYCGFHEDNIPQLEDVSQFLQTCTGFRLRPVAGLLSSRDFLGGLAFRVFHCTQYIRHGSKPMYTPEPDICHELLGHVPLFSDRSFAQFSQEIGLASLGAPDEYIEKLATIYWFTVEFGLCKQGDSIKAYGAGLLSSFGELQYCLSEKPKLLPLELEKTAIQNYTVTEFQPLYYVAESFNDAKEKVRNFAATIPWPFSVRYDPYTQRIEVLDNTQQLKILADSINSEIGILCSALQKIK
The test is described as follows: Cell Based Phenylalanine Flux Assay. The conditions noted are these: A375 cells expressing human R408W PAH; 24 hrs compound incubation; 13C-Tyrosine by LC-MS; average where tested multiple times; read-out: AC50.

As for `O=C(c1cnc(C(F)(F)F)o1)N1CCc2[nH]cnc2[C@@H]1c1nc2c(F)cccc2s1` [Example 1402, (R)-(4-(4-fluorobenzo[d]thiazol-2-yl)-6,7-dihydro-1H-imidazo[4,5-c]pyridin-5(4H)-yl)(2-(trifluoromethyl)oxazol-5-yl)methanone], the AC50 is 1000 to 5000 nM.

Turning to `O=C(c1cnc(-c2ccnc(C(F)(F)F)c2)s1)N1CCc2[nH]cnc2[C@H]1c1nc2ccccc2s1` [Example 1403], the AC50 lay in the range of 500 to 1000 nM.

As to `O=C(c1cnc(-c2ccnc(C(F)(F)F)c2)s1)N1CCc2[nH]cnc2[C@@H]1c1nc2ccccc2s1` [Example 1404, (R)-(4-(benzo[d]thiazol-2-yl)-6,7-dihydro-1H-imidazo[4,5-c]pyridin-5(4H)-yl)(2-(2-(trifluoromethyl)pyridin-4-yl)thiazol-5-yl)methanone], the AC50 is 1000 to 5000 nM.

As to `Cc1nn(C)c(C)c1-c1ncc(C(=O)N2CCc3[nH]cnc3[C@H]2c2nc3ccccc3s2)s1` [Example 1405], the concentration at half-maximal activity (AC50) was less than 500 nM.

On to `Cc1nn(C)c(C)c1-c1ncc(C(=O)N2CCc3[nH]cnc3[C@@H]2c2nc3ccccc3s2)s1` [Example 1406, (R)-(4-(benzo[d]thiazol-2-yl)-6,7-dihydro-1H-imidazo[4,5-c]pyridin-5(4H)-yl)(2-(1,3,5-trimethyl-1H-pyrazol-4-yl)thiazol-5-yl)methanone], for which the concentration at half-maximal activity (AC50) was 500 to 1000 nM.

As to `Cn1ncc(-c2ncc(C(=O)N3CCc4[nH]cnc4[C@H]3c3nc4ccccc4s3)s2)c1C(F)(F)F` [Example 1407], the AC50 is less than 500 nM.

For `Cn1ncc(-c2ncc(C(=O)N3CCc4[nH]cnc4[C@@H]3c3nc4ccccc4s3)s2)c1C(F)(F)F` [Example 1408, (R)-(4-(benzo[d]thiazol-2-yl)-6,7-dihydro-1H-imidazo[4,5-c]pyridin-5(4H)-yl)(2-(1-methyl-5-(trifluoromethyl)-1H-pyrazol-4-yl)thiazol-5-yl)methanone], the AC50 lay in the range of 1000 to 5000 nM.

For the molecule `O=C(c1cnn(C(F)F)c1)N1CCc2[nH]cnc2[C@H]1c1nc2ccccc2s1` [Example 1409], the AC50 is 500 to 1000 nM.

Regarding `O=C(c1cnn(C(F)F)c1)N1CCc2[nH]cnc2[C@@H]1c1nc2ccccc2s1` [Example 1410, (R)-(4-(benzo[d]thiazol-2-yl)-6,7-dihydro-1H-imidazo[4,5-c]pyridin-5(4H)-yl)(1-(difluoromethyl)-1H-pyrazol-4-yl)methanone], the AC50 is more than 5000 nM.

In the case of `O=C(c1cnn(-c2ccc(F)cc2)c1)N1CCc2[nH]cnc2[C@H]1c1nc2ccccc2s1` [Example 1411], the AC50 is less than 500 nM.

Take `O=C(c1cnn(-c2ccc(F)cc2)c1)N1CCc2[nH]cnc2[C@@H]1c1nc2ccccc2s1` [Example 1412, (R)-(4-(benzo[d]thiazol-2-yl)-6,7-dihydro-1H-imidazo[4,5-c]pyridin-5(4H)-yl)(1-(4-fluorophenyl)-1H-pyrazol-4-yl)methanone]: the AC50 fell in the range of 1000 to 5000 nM.

Regarding `Cc1nc(-c2cnn(CC(F)(F)F)c2)oc1C(=O)N1CCc2[nH]cnc2[C@H]1c1nc2ccccc2s1` [Example 1413], the AC50 was less than 500 nM.

Take `Cc1nc(-c2cnn(CC(F)(F)F)c2)oc1C(=O)N1CCc2[nH]cnc2[C@@H]1c1nc2ccccc2s1` [Example 1414, (R)-(4-(benzo[d]thiazol-2-yl)-6,7-dihydro-1H-imidazo[4,5-c]pyridin-5(4H)-yl)(4-methyl-2-(1-(2,2,2-trifluoroethyl)-1H-pyrazol-4-yl)oxazol-5-yl)methanone]: the AC50 was in the range of 1000 to 5000 nM.

Turning to `CC(C)n1cc(-c2ncc(C(=O)N3CCc4[nH]cnc4[C@H]3c3nc4ccccc4s3)o2)cn1` [Example 1415], the AC50 is less than 500 nM.

On to `CC(C)n1cc(-c2ncc(C(=O)N3CCc4[nH]cnc4[C@@H]3c3nc4ccccc4s3)o2)cn1` [Example 1416, (R)-(4-(benzo[d]thiazol-2-yl)-6,7-dihydro-1H-imidazo[4,5-c]pyridin-5(4H)-yl)(2-(1-isopropyl-1H-pyrazol-4-yl)oxazol-5-yl)methanone], for which the AC50 lay within 1000 to 5000 nM.

As to `O=C(c1nnc(-c2ccccc2)o1)N1CCc2[nH]cnc2[C@H]1c1nc2ccccc2s1` [Example 1417], the concentration at half-maximal activity (AC50) was less than 500 nM.
